# Reference: patent US9181305B2, “Exendin-4 peptide analogues” (SANOFI, priority 2012, dated 2015)
# *1 amine or outer side, *2 acyl side, *3 side chain or, on linkers, in order; H or OH if unused. Where a SMILES comes first, the peptide text is derived from it. Side-chain parts run from the residue outwards. [ ]: non-standard residue; d: D form. The star is where a group is joined. γGlu = O=C(O)[C@H](CCC(=O)[*:2])N[*:1]; Palmitoyl = CCCCCCCCCCCCCCCC(=O)*; Aib = CC(C)(N)C(=O)O
# Target: T1, human GLP-1 receptor (hGLP-1 R) (Homo sapiens, UniProt P43220)
# T1 construct: expressed in transfected cells; host or cells: HEK-293
# Assay: cAMP response (HTRF) of HEK-293 cells stably expressing human GLP-1 receptor
# Assay type: cell-based
# Conditions: HEK-293 cells expressing human GLP-1 receptor, cAMP formation
# Description: cAMP content of cells was determined using a kit from Cisbio Corp. (cat. no. 62AM4PEC) based on HTRF (Homogenous Time Resolved Fluorescence). For preparation, cells were split into T175 culture flasks and grown overnight to near confluency in medium (DMEM/10% FBS). Medium was then removed and cells washed with PBS lacking calcium and magnesium, followed by proteinase treatment with accutase (Sigma-Aldrich cat. no. A6964). Detached cells were washed and resuspended in assay buffer (1×HBSS; 20 mM HEPES, 0.1% BSA, 2 mM IBMX) and cellular density determined. […] For measurement, 25 μl of test compound in assay buffer was added to the wells, followed by incubation for 30 minutes at room temperature.
# T1 sequence (P43220 24-463): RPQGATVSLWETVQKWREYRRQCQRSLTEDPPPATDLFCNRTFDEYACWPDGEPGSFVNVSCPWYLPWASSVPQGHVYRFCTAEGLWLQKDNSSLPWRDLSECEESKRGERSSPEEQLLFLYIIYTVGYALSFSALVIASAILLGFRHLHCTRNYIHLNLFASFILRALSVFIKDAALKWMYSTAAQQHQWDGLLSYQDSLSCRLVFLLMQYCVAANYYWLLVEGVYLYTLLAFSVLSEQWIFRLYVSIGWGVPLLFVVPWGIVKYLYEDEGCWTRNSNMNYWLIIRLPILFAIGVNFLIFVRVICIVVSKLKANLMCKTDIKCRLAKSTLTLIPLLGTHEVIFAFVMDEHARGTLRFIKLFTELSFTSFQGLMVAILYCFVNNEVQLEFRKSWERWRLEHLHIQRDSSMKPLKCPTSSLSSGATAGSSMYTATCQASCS
row,Compound,EC50
1,CCCCCCCCCCCCCCCC(=O)N[C@@H](CCC(=O)NCCCC[C@H](NC(=O)[C@@H]1CCCN1C(=O)[C@@H]1CCCN1C(=O)[C@@H]1CCCN1C(=O)[C@H](C)NC(=O)CNC(=O)[C@H](CO)NC(=O)[C@H](CO)NC(=O)[C@@H]1CCCN1C(=O)CNC(=O)CNC(=O)[C@H](CC(N)=O)NC(=O)[C@H](CCCCN)NC(=O)[C@H](CC(C)C)NC(=O)[C@H](Cc1c[nH]c2ccccc12)NC(=O)[C@H](CCC(=O)O)NC(=O)[C@@H](NC(=O)[C@H](Cc1ccccc1)NC(=O)[C@H](CC(=O)O)NC(=O)[C@H](CCC(N)=O)NC(=O)[C@H](C)NC(=O)[C@H](CCCNC(=N)N)NC(=O)[C@H](CCCNC(=N)N)NC(=O)[C@H](CO)NC(=O)[C@H](CC(=O)O)NC(=O)[C@H](CCSC)NC(=O)[C@H](CCC(N)=O)NC(=O)[C@H](CCCCN)NC(=O)[C@H](CO)NC(=O)[C@H](CC(C)C)NC(=O)[C@H](CC(=O)O)NC(=O)[C@H](CO)NC(=O)[C@@H](NC(=O)[C@H](Cc1ccccc1)NC(=O)[C@@H](NC(=O)CNC(=O)[C@H](CCC(N)=O)NC(=O)[C@H](CO)NC(=O)[C@@H](N)Cc1c[nH]cn1)[C@@H](C)O)[C@@H](C)O)[C@@H](C)CC)C(N)=O)C(=O)O [(6)],3.1 pM
2,CC[C@H](C)[C@H](NC(=O)[C@H](Cc1ccccc1)NC(=O)[C@H](CC(=O)O)NC(=O)[C@H](CCCCN)NC(=O)[C@H](C)NC(=O)[C@H](CCCNC(=N)N)NC(=O)[C@H](CCCNC(=N)N)NC(=O)[C@H](CCC(=O)O)NC(=O)[C@H](CCC(=O)O)NC(=O)[C@H](CCSC)NC(=O)[C@H](CCC(N)=O)NC(=O)[C@H](CCCCN)NC(=O)[C@H](CO)NC(=O)[C@H](CC(C)C)NC(=O)[C@H](CC(=O)O)NC(=O)[C@H](CO)NC(=O)[C@@H](NC(=O)[C@H](Cc1ccccc1)NC(=O)[C@@H](NC(=O)CNC(=O)[C@H](CCC(N)=O)NC(=O)[C@H](CO)NC(=O)[C@@H](N)Cc1c[nH]cn1)[C@@H](C)O)[C@@H](C)O)C(=O)N[C@@H](CCC(=O)O)C(=O)N[C@@H](Cc1c[nH]c2ccccc12)C(=O)N[C@@H](CC(C)C)C(=O)N[C@@H](CCCCN)C(=O)N[C@@H](CC(N)=O)C(=O)NCC(=O)NCC(=O)N1CCC[C@H]1C(=O)N[C@@H](CO)C(=O)N[C@@H](CO)C(=O)NCC(=O)N[C@@H](C)C(=O)N1CCC[C@H]1C(=O)N1CCC[C@H]1C(=O)N1CCC[C@H]1C(=O)N[C@@H](CO)C(N)=O [(16)] (H-HSQGTFTSDLSKQMEERRAKDFIEWLKNGGPSSGAPPPS-NH2),7.6 pM
3,CCCCCCCCCCCCCCCC(=O)NCCCC[C@H](NC(=O)[C@H](CO)NC(=O)[C@@H]1CCCN1C(=O)[C@@H]1CCCN1C(=O)[C@@H]1CCCN1C(=O)[C@H](C)NC(=O)CNC(=O)[C@H](CO)NC(=O)[C@H](CO)NC(=O)[C@@H]1CCCN1C(=O)CNC(=O)CNC(=O)[C@H](CC(N)=O)NC(=O)[C@H](CCCCN)NC(=O)[C@H](CC(C)C)NC(=O)[C@H](Cc1c[nH]c2ccccc12)NC(=O)[C@H](CCC(=O)O)NC(=O)[C@@H](NC(=O)[C@H](Cc1ccccc1)NC(=O)[C@H](CC(=O)O)NC(=O)[C@H](CCC(N)=O)NC(=O)[C@H](C)NC(=O)[C@H](CCCNC(=N)N)NC(=O)[C@H](CCCNC(=N)N)NC(=O)[C@H](CO)NC(=O)[C@H](CC(=O)O)NC(=O)[C@H](CCSC)NC(=O)[C@H](CCC(N)=O)NC(=O)[C@H](CCCCN)NC(=O)[C@H](CO)NC(=O)[C@H](CC(C)C)NC(=O)[C@H](CC(=O)O)NC(=O)[C@H](CO)NC(=O)[C@@H](NC(=O)[C@H](Cc1ccccc1)NC(=O)[C@@H](NC(=O)CNC(=O)[C@H](CCC(N)=O)NC(=O)[C@@H](CO)NC(=O)[C@@H](N)Cc1c[nH]cn1)[C@@H](C)O)[C@@H](C)O)[C@@H](C)CC)C(N)=O [(26)],9.7 pM
4,CC[C@H](C)[C@H](NC(=O)[C@H](Cc1ccccc1)NC(=O)[C@H](CC(=O)O)NC(=O)[C@H](CCC(N)=O)NC(=O)[C@H](C)NC(=O)[C@H](CCCNC(=N)N)NC(=O)[C@H](CCCNC(=N)N)NC(=O)[C@H](CO)NC(=O)[C@H](CC(=O)O)NC(=O)[C@H](CCSC)NC(=O)[C@H](CCC(N)=O)NC(=O)[C@H](CCCCN)NC(=O)[C@H](CO)NC(=O)[C@H](CC(C)C)NC(=O)[C@H](CC(=O)O)NC(=O)[C@H](CO)NC(=O)[C@@H](NC(=O)[C@H](Cc1ccccc1)NC(=O)[C@@H](NC(=O)CNC(=O)[C@H](CCC(N)=O)NC(=O)[C@H](C)NC(=O)[C@@H](N)Cc1c[nH]cn1)[C@@H](C)O)[C@@H](C)O)C(=O)N[C@@H](CCC(=O)O)C(=O)N[C@@H](Cc1c[nH]c2ccccc12)C(=O)N[C@@H](CC(C)C)C(=O)N[C@@H](CCCCN)C(=O)N[C@@H](CC(N)=O)C(=O)NCC(=O)NCC(=O)N1CCC[C@H]1C(=O)N[C@@H](CO)C(=O)N[C@@H](CO)C(=O)NCC(=O)N[C@@H](C)C(=O)N1CCC[C@H]1C(=O)N1CCC[C@H]1C(=O)N1CCC[C@H]1C(=O)N[C@@H](CO)C(N)=O [(39)] (H-HAQGTFTSDLSKQMDSRRAQDFIEWLKNGGPSSGAPPPS-NH2),4.6 pM
5,CCCCCCCCCCCCCCCC(=O)N[C@@H](CCC(=O)NCCCC[C@H](NC(=O)[C@@H]1CCCN1C(=O)[C@@H]1CCCN1C(=O)[C@@H]1CCCN1C(=O)[C@H](C)NC(=O)CNC(=O)[C@H](CO)NC(=O)[C@H](CO)NC(=O)[C@@H]1CCCN1C(=O)CNC(=O)CNC(=O)[C@H](CC(N)=O)NC(=O)[C@H](CCCCN)NC(=O)[C@H](CC(C)C)NC(=O)[C@H](Cc1c[nH]c2ccccc12)NC(=O)[C@H](CCC(=O)O)NC(=O)[C@@H](NC(=O)[C@H](Cc1ccccc1)NC(=O)[C@H](CC(=O)O)NC(=O)[C@H](CCC(N)=O)NC(=O)[C@H](C)NC(=O)[C@H](CCCNC(=N)N)NC(=O)[C@H](CCCNC(=N)N)NC(=O)[C@H](CO)NC(=O)[C@H](CC(=O)O)NC(=O)[C@H](CCSC)NC(=O)[C@H](CCC(N)=O)NC(=O)[C@H](CCCCN)NC(=O)[C@H](CO)NC(=O)[C@H](CC(C)C)NC(=O)[C@H](CC(=O)O)NC(=O)[C@H](CO)NC(=O)[C@@H](NC(=O)[C@H](Cc1ccccc1)NC(=O)[C@@H](NC(=O)CNC(=O)[C@H](CCC(N)=O)NC(=O)[C@@H](CO)NC(=O)[C@@H](N)Cc1c[nH]cn1)[C@@H](C)O)[C@@H](C)O)[C@@H](C)CC)C(N)=O)C(=O)O [(51)],5.8 pM
6,CCCCCCCCCCCCCCCC(=O)N[C@@H](CCC(=O)NCCCC[C@H](NC(=O)[C@@H]1CCCN1C(=O)[C@@H]1CCCN1C(=O)[C@@H]1CCCN1C(=O)[C@H](C)NC(=O)CNC(=O)[C@H](CO)NC(=O)[C@H](CO)NC(=O)[C@@H]1CCCN1C(=O)CNC(=O)CNC(=O)[C@H](CC(N)=O)NC(=O)[C@H](CCCCN)NC(=O)[C@H](CC(C)C)NC(=O)[C@H](Cc1c[nH]c2ccccc12)NC(=O)[C@H](CCC(=O)O)NC(=O)[C@@H](NC(=O)[C@H](Cc1ccccc1)NC(=O)[C@H](CC(=O)O)NC(=O)[C@H](CCC(N)=O)NC(=O)[C@H](C)NC(=O)[C@H](CCCNC(=N)N)NC(=O)[C@H](CCCNC(=N)N)NC(=O)[C@H](CO)NC(=O)[C@H](CC(=O)O)NC(=O)[C@H](CCSC)NC(=O)[C@H](CCC(N)=O)NC(=O)[C@H](CCCCN)NC(=O)[C@H](CO)NC(=O)[C@H](CC(C)C)NC(=O)[C@H](CC(=O)O)NC(=O)[C@H](CO)NC(=O)[C@@H](NC(=O)[C@H](Cc1ccccc1)NC(=O)[C@@H](NC(=O)CNC(=O)[C@H](CCC(N)=O)NC(=O)C(C)(C)NC(=O)[C@@H](N)Cc1c[nH]cn1)[C@@H](C)O)[C@@H](C)O)[C@@H](C)CC)C(N)=O)C(=O)O [(52)] (H-H[Aib]QGTFTSDLSKQMDSRRAQDFIEWLKNGGPSSGAPPPK([γGlu-Palmitoyl])-NH2),4.1 pM
7,CCCCCCCCCCCCCCCC(=O)N[C@@H](CCC(=O)NCCCC[C@H](NC(=O)[C@H](CO)NC(=O)[C@@H]1CCCN1C(=O)[C@@H]1CCCN1C(=O)[C@@H]1CCCN1C(=O)[C@H](C)NC(=O)CNC(=O)[C@H](CO)NC(=O)[C@H](CO)NC(=O)[C@@H]1CCCN1C(=O)CNC(=O)CNC(=O)[C@H](CC(N)=O)NC(=O)[C@H](CCCCN)NC(=O)[C@H](CC(C)C)NC(=O)[C@H](Cc1c[nH]c2ccccc12)NC(=O)[C@H](CCC(=O)O)NC(=O)[C@@H](NC(=O)[C@H](Cc1ccccc1)NC(=O)[C@H](CC(=O)O)NC(=O)[C@H](CCC(N)=O)NC(=O)[C@H](C)NC(=O)[C@H](CCCNC(=N)N)NC(=O)[C@H](CCCNC(=N)N)NC(=O)[C@H](CO)NC(=O)[C@H](CC(=O)O)NC(=O)[C@H](CCSC)NC(=O)[C@H](CCC(N)=O)NC(=O)[C@H](CCCCN)NC(=O)[C@H](CO)NC(=O)[C@H](CC(C)C)NC(=O)[C@H](CC(=O)O)NC(=O)[C@H](CO)NC(=O)[C@@H](NC(=O)[C@H](Cc1ccccc1)NC(=O)[C@@H](NC(=O)CNC(=O)[C@H](CCC(N)=O)NC(=O)C(C)(C)NC(=O)[C@@H](N)Cc1c[nH]cn1)[C@@H](C)O)[C@@H](C)O)[C@@H](C)CC)C(N)=O)C(=O)O [(59)] (H-H[Aib]QGTFTSDLSKQMDSRRAQDFIEWLKNGGPSSGAPPPSK([γGlu-Palmitoyl])-NH2),2.9 pM
8,CCCCCCCCCCCCCCCC(=O)N[C@@H](CCC(=O)NCCCC[C@H](NC(=O)[C@H](CO)NC(=O)[C@@H]1CCCN1C(=O)[C@@H]1CCCN1C(=O)[C@@H]1CCCN1C(=O)[C@H](C)NC(=O)CNC(=O)[C@H](CO)NC(=O)[C@H](CO)NC(=O)[C@@H]1CCCN1C(=O)CNC(=O)CNC(=O)[C@H](CC(N)=O)NC(=O)[C@H](CCCCN)NC(=O)[C@H](CC(C)C)NC(=O)[C@H](Cc1c[nH]c2ccccc12)NC(=O)[C@H](CCC(=O)O)NC(=O)[C@@H](NC(=O)[C@H](Cc1ccccc1)NC(=O)[C@H](CC(=O)O)NC(=O)[C@H](CCC(N)=O)NC(=O)[C@H](C)NC(=O)[C@H](CCCNC(=N)N)NC(=O)[C@H](CCCNC(=N)N)NC(=O)[C@H](CO)NC(=O)[C@H](CCC(=O)O)NC(=O)[C@H](CCSC)NC(=O)[C@H](CCC(N)=O)NC(=O)[C@H](CCCCN)NC(=O)[C@H](CO)NC(=O)[C@H](CC(C)C)NC(=O)[C@H](CC(=O)O)NC(=O)[C@H](CO)NC(=O)[C@@H](NC(=O)[C@H](Cc1ccccc1)NC(=O)[C@@H](NC(=O)CNC(=O)[C@H](CCC(N)=O)NC(=O)[C@@H](CO)NC(=O)[C@@H](N)Cc1c[nH]cn1)[C@@H](C)O)[C@@H](C)O)[C@@H](C)CC)C(N)=O)C(=O)O [(61)] (H-H[dS]QGTFTSDLSKQMESRRAQDFIEWLKNGGPSSGAPPPSK([γGlu-Palmitoyl])-NH2),4.2 pM
